≈ marks a conversion by molar mass, not a printed value.
Columns and labels:
[1] = test system: Mycobacterium tuberculosis; test: Antimycobacterial activity against Mycobacterium tuberculosis H37Rv ATCC 27294 assessed as reduction in bacterial growth by microplate alamar blue assay; format: functional
[2] = test system: Mycobacterium avium; test: Antimycobacterial activity against Mycobacterium avium assessed as reduction in bacterial growth; format: functional
[3] = test system: Mycobacteroides abscessus; test: Antimycobacterial activity against Mycobacterium abscessus ATCC 19977 assessed as reduction in bacterial growth by microplate Alamar blue assay; format: functional
[4] = Binding affinity to full length Mycobacterium tuberculosis ClpC1 assessed as dissociation constant by SPR analysis
[5] = Cytotoxicity against African green monkey Vero cells; format: toxicity, cell-based; settings: African green monkey (Chlorocebus sabaeus)
[6] = Selectivity index, ratio of IC50 for cytotoxicity against African green monkey Vero cells to MIC for antimycobacterial activity against Mycobacterium tuberculosis H37Rv ATCC 27294; format: toxicity, cell-based; settings: read-out: Selectivity Index
[7] = Binding affinity to N-terminal Mycobacterium tuberculosis ClpC1 assessed as dissociation constant by SPR analysis

Row | SMILES | MIC [1] | MIC [2] | MIC [3] | Kd [4] | IC50 [5] | selectivity ratio [6] | Kd [7]
1 | C/C=C/C[C@@H]1NC(=O)[C@H](CC(C)C)N2C(=O)[C@H](CC(C)[C@H]2OC)N(C)C(=O)[C@H](C)NC(=O)[C@H](Cc2ccc(OC)c([N+](=O)[O-])c2)NC(=O)[C@H](CC(C)C)N(C)C(=O)[C@H](Cc2cn(C(C)(C)[C@H]3CO3)c3ccccc23)NC1=O (some centres undefined) | 0.006 µM (≈ 0.00642 µg/mL) | 1.2 µM (≈ 1.28 µg/mL) | 0.53 µM (≈ 0.567 µg/mL) | 64 nM | 100000 nM | 17000 | –
2 | C/C=C/C[C@@H]1NC(=O)[C@H](CC(C)C)N2C(=O)[C@H](CC(C)[C@H]2O)N(C)C(=O)[C@H](C)NC(=O)[C@H](Cc2ccc(OC)c([N+](=O)[O-])c2)NC(=O)[C@H](CC(C)C)N(C)C(=O)[C@H](Cc2cn(C(C)(C)[C@H]3CO3)c3ccccc23)N(C)C1=O (some centres undefined) | 0.054 µM (≈ 0.0578 µg/mL) | 9 µM (≈ 9.63 µg/mL) | 0.58 µM (≈ 0.621 µg/mL) | 130 nM | > 100000 nM | > 1900 | 120 nM
3 | C/C=C/C[C@@H]1NC(=O)[C@H](CC(C)C)N2C=C(C)C[C@@H](C2=O)N(C)C(=O)[C@H](C)NC(=O)[C@H](Cc2ccc(OC)c([N+](=O)[O-])c2)NC(=O)[C@H](CC(C)C)N(C)C(=O)[C@H](Cc2cn(C(C)(C)[C@H]3CO3)c3ccccc23)NC1=O | 0.073 µM (≈ 0.0758 µg/mL) | > 10 µM | 2.3 µM (≈ 2.39 µg/mL) | – | 98000 nM | 1300 | –
4 | C/C=C/C[C@@H]1NC(=O)[C@H](CC(C)C)N2C(=O)[C@H](CC(C)[C@H]2OC)N(C)C(=O)[C@H](C)NC(=O)[C@H](Cc2ccc(OC(C)=O)c([N+](=O)[O-])c2)NC(=O)[C@H](CC(C)C)N(C)C(=O)[C@H](Cc2cn(C(C)(C)[C@H]3CO3)c3ccccc23)NC1=O (some centres undefined) | 0.001 µM (≈ 0.0011 µg/mL) | 0.14 µM (≈ 0.154 µg/mL) | 0.13 µM (≈ 0.143 µg/mL) | 44 nM | > 100000 nM | > 71000 | 40 nM
5 | C/C=C/C[C@@H]1NC(=O)[C@H](CC(C)C)N2C(=O)[C@H](C[C@@H](C)[C@H]2OCC)N(C)C(=O)[C@H](C)NC(=O)[C@H](Cc2ccc(O)c([N+](=O)[O-])c2)NC(=O)[C@H](CC(C)C)N(C)C(=O)[C@H](Cc2cn(C(C)(C)[C@H](O)CCl)c3ccccc23)NC1=O | 0.24 µM (≈ 0.266 µg/mL) | > 10 µM | 1.1 µM (≈ 1.22 µg/mL) | 140 nM | > 10000 nM | > 42 | 120 nM
6 | C/C=C/C[C@@H]1NC(=O)[C@H](CC(C)C)N2C=C(C)C[C@@H](C2=O)N(C)C(=O)[C@H](C)NC(=O)[C@H](Cc2ccc(OC(=O)c3ccccc3)c([N+](=O)[O-])c2)NC(=O)[C@H](CC(C)C)N(C)C(=O)[C@H](Cc2cn(C(C)(C)[C@H](O)CCl)c3ccccc23)NC1=O | 0.052 µM (≈ 0.0606 µg/mL) | > 10 µM | 2 µM (≈ 2.33 µg/mL) | – | > 100000 nM | > 1900 | –
7 | C/C=C/C[C@@H]1NC(=O)[C@H](CC(C)C)N2C=C(C)C[C@@H](C2=O)N(C)C(=O)[C@H](C)NC(=O)[C@H](Cc2ccc3c(c2)N=C(C)CC(C)(C)O3)NC(=O)[C@H](CC(C)C)N(C)C(=O)[C@H](Cc2cn(C(C)(C)[C@H](O)CCl)c3ccccc23)NC1=O | 0.79 µM (≈ 0.878 µg/mL) | > 10 µM | 4.5 µM (≈ 5 µg/mL) | – | > 100000 nM | > 130 | –
8 | C/C=C/C[C@@H]1NC(=O)[C@H](CC(C)C)N2C(=O)[C@H](CC(C)[C@H]2O)N(C)C(=O)[C@H](C)NC(=O)[C@H](Cc2ccc(O)c([N+](=O)[O-])c2)NC(=O)[C@H](CC(C)C)N(C)C(=O)[C@H](Cc2cn(C(C)(C)[C@H]3CO3)c3ccccc23)NC1=O (mixture of isomers) | 0.019 µM | 1.2 µM | 0.29 µM | 110 nM | – | – | 83 nM
9 | C/C=C/C[C@@H]1NC(=O)[C@H](CC(C)C)N2C(=O)[C@H](CC(C)[C@H]2O)N(C)C(=O)[C@H](C)NC(=O)[C@H](Cc2ccc(OC(C)=O)c([N+](=O)[O-])c2)NC(=O)[C@H](CC(C)C)N(C)C(=O)[C@H](Cc2cn(C(C)(C)[C@H]3CO3)c3ccccc23)NC1=O (mixture of isomers) | – | – | – | – | – | 11000 | –
10 | CO[C@H]1/C=C/O[C@@]2(C)Oc3c(C)c(O)c4c(O)c(c(/C=N/N5CCN(C)CC5)c(O)c4c3C2=O)NC(=O)/C(C)=C\C=C\[C@H](C)[C@H](O)[C@@H](C)[C@@H](O)[C@@H](C)[C@H](OC(C)=O)[C@@H]1C [RIFAMPIN] | 0.03 µM (≈ 0.0247 µg/mL) | – | > 4 µM | – | > 122000 nM | – | –
11 | NNC(=O)c1ccncc1 [ISONIAZID] | 0.46 µM (≈ 0.0631 µg/mL) | – | > 8 µM | – | – | – | –
12 | C/C=C/C[C@@H]1NC(=O)[C@H](CC(C)C)N2C(=O)[C@H](CC(C)[C@H]2OCCC)N(C)C(=O)[C@H](C)NC(=O)[C@H](Cc2ccc(O)c([N+](=O)[O-])c2)NC(=O)[C@H](CC(C)C)N(C)C(=O)[C@H](Cc2cn(C(C)(C)[C@H](O)CCl)c3ccccc23)NC1=O (some centres undefined) | 0.75 µM (≈ 0.841 µg/mL) | > 10 µM | 2.1 µM (≈ 2.35 µg/mL) | – | > 10000 nM | > 13 | –
13 | C/C=C/C[C@@H]1NC(=O)[C@H](CC(C)C)N2C=C(C)C[C@@H](C2=O)N(C)C(=O)[C@H](C)NC(=O)[C@H](Cc2ccc(O)c([N+](=O)[O-])c2)NC(=O)[C@H](CC(C)C)N(C)C(=O)[C@H](Cc2cn(C(C)(C)[C@H](O)CCl)c3ccccc23)NC1=O | 0.019 µM (≈ 0.0202 µg/mL) | 4.8 µM (≈ 5.09 µg/mL) | 1.1 µM (≈ 1.17 µg/mL) | – | > 100000 nM | – | –
14 | C/C=C/C[C@@H]1NC(=O)[C@H](CC(C)C)N2C(=O)[C@H](C[C@@H](C)[C@H]2OCCCC)N(C)C(=O)[C@H](C)NC(=O)[C@H](Cc2ccc(O)c([N+](=O)[O-])c2)NC(=O)[C@H](CC(C)C)N(C)C(=O)[C@H](Cc2cn(C(C)(C)[C@H](O)CCl)c3ccccc23)NC1=O | 4.3 µM (≈ 4.88 µg/mL) | – | > 10 µM | 170 nM | > 100000 nM | – | 210 nM
15 | C/C=C/C[C@@H]1NC(=O)[C@H](CC(C)C)N2C=C(C)C[C@@H](C2=O)N(C)C(=O)[C@H](C)NC(=O)[C@H](Cc2ccc(OC(C)=O)c([N+](=O)[O-])c2)NC(=O)[C@H](CC(C)C)N(C)C(=O)[C@H](Cc2cn(C(C)(C)[C@H](O)CCl)c3ccccc23)NC1=O | 0.022 µM (≈ 0.0243 µg/mL) | 5.8 µM (≈ 6.4 µg/mL) | 1.1 µM (≈ 1.21 µg/mL) | – | > 100000 nM | > 4500 | –
16 | C/C=C/C[C@@H]1NC(=O)[C@H](CC(C)C)N2C(=O)[C@H](CC(C)[C@H]2OC(C)=O)N(C)C(=O)[C@H](C)NC(=O)[C@H](Cc2ccc(OC(C)=O)c([N+](=O)[O-])c2)NC(=O)[C@H](CC(C)C)N(C)C(=O)[C@H](Cc2cn(C(C)(C)[C@H]3CO3)c3ccccc23)NC1=O (some centres undefined) | 0.004 µM (≈ 0.00451 µg/mL) | 0.96 µM (≈ 1.08 µg/mL) | 0.27 µM (≈ 0.304 µg/mL) | 16 nM | > 100000 nM | > 23000 | –
17 | C/C=C/C[C@@H]1NC(=O)[C@H](CC(C)C)N2C(=O)[C@H](CC(C)[C@H]2OC)N(C)C(=O)[C@H](C)NC(=O)[C@H](Cc2ccc(OC)c([N+](=O)[O-])c2)NC(=O)[C@H](CC(C)C)N(C)C(=O)[C@H](Cc2cn(C(C)(C)[C@H]3CO3)c3ccccc23)N(C)C1=O (some centres undefined) | 0.065 µM (≈ 0.0705 µg/mL) | 9 µM (≈ 9.76 µg/mL) | 2.1 µM (≈ 2.28 µg/mL) | – | 90000 nM | 1400 | –
18 | C/C=C/C[C@@H]1NC(=O)[C@H](CC(C)C)N2C(=O)[C@H](CC(C)[C@H]2OC)N(C)C(=O)[C@H](C)NC(=O)[C@H](Cc2ccc(O)c([N+](=O)[O-])c2)NC(=O)[C@H](CC(C)C)N(C)C(=O)[C@H](Cc2cn(C(C)(C)[C@H]3CO3)c3ccccc23)NC1=O (some centres undefined) | 0.002 µM (≈ 0.00211 µg/mL) | 1.4 µM (≈ 1.48 µg/mL) | 0.15 µM (≈ 0.158 µg/mL) | – | > 100000 nM | > 53000 | –
19 | C/C=C/C[C@@H]1NC(=O)[C@H](CC(C)C)N2C=C(C)C[C@@H](C2=O)N(C)C(=O)[C@H](C)NC(=O)[C@H](Cc2ccc(O)c(N)c2)NC(=O)[C@H](CC(C)C)N(C)C(=O)[C@H](Cc2cn(C(C)(C)[C@H](O)CCl)c3ccccc23)NC1=O | 0.89 µM (≈ 0.917 µg/mL) | > 10 µM | 8.3 µM (≈ 8.55 µg/mL) | – | > 100000 nM | > 110 | –
20 | C/C=C/C[C@@H]1NC(=O)[C@H](CC(C)C)N2C(=O)[C@H](C[C@H](C)[C@@H]2OCCCC)N(C)C(=O)[C@H](C)NC(=O)[C@H](Cc2ccc(O)c([N+](=O)[O-])c2)NC(=O)[C@H](CC(C)C)N(C)C(=O)[C@H](Cc2cn(C(C)(C)[C@H](O)CCl)c3ccccc23)NC1=O | 0.048 µM (≈ 0.0545 µg/mL) | – | 4.2 µM (≈ 4.77 µg/mL) | 29 nM | > 100000 nM | > 2100 | 27 nM

Reference: ChEMBL document CHEMBL6177961, “Structure-Based Analysis of Semisynthetic Anti-TB Rufomycin Analogues” (J Nat Prod, 2025)
